# Assay results as given in patent publication US5580871A, “4-Heteroaryl- 1,4-dihydropyridine compounds with calcium agonist and alpha1 -antagonist activity” (The Dupont Merck Pharmaceutical Company, priority 1995, dated 1996).
# Assays:
# [1] = tested on: influx of calcium ions into cells; settings: background, cited from earlier work
# guinea pig left atria = assay: Positive inotropic effect in guinea pig left atria; settings: Cavia porcellus; for EC50: concentration that increases developed tension (DT) by 50% above the control DT, left atria paced at 2 Hz, 37° C.; for Emax: ratio of the maximum effect of the test compound to that of Bay K8644, read-out: Intrinsic Activity
# Procedure: Guinea pigs are killed by cervical dislocation. The left atria are removed and mounted at 1 gm resting tension in tissue baths containing oxygenated Krebs bicarbonate solution which is kept at 37° C. The left atria are electrically paced at 2 Hz with square wave pulses of 1 msec duration. The voltage is set at 1.5×threshold level.
# After a one hour equilibration period, control values for developed tension (DT, gm) are recorded. Test compounds are then added to the baths, in a cumulative manner to a maximum concentration of 10^-4, to obtain a concentration-response curve. Treatment values of DT are obtained after the drug effect has reached a plateau and the exposure time for each concentration is 5-8 minutes. Percent change of the treatment value from the control value is calculated at each concentration of the test compound.
# Ca^2+ channel = molecular target: T1, Ca^2+ channel (Rattus norvegicus, UniProt P22002); assay: [3H]-Nitrendipine binding assay (affinity for calcium channels); settings: rat cardiac microsomes; 0.5 nM [3H]-nitrendipine, 60 min, 25° C.
# T1 construct: rat cardiac microsomes (source of Ca^2+ channels); from tissue; host or cells: rat cardiac microsomes
# T1 sequence (P22002 whole entry, other chains not shown): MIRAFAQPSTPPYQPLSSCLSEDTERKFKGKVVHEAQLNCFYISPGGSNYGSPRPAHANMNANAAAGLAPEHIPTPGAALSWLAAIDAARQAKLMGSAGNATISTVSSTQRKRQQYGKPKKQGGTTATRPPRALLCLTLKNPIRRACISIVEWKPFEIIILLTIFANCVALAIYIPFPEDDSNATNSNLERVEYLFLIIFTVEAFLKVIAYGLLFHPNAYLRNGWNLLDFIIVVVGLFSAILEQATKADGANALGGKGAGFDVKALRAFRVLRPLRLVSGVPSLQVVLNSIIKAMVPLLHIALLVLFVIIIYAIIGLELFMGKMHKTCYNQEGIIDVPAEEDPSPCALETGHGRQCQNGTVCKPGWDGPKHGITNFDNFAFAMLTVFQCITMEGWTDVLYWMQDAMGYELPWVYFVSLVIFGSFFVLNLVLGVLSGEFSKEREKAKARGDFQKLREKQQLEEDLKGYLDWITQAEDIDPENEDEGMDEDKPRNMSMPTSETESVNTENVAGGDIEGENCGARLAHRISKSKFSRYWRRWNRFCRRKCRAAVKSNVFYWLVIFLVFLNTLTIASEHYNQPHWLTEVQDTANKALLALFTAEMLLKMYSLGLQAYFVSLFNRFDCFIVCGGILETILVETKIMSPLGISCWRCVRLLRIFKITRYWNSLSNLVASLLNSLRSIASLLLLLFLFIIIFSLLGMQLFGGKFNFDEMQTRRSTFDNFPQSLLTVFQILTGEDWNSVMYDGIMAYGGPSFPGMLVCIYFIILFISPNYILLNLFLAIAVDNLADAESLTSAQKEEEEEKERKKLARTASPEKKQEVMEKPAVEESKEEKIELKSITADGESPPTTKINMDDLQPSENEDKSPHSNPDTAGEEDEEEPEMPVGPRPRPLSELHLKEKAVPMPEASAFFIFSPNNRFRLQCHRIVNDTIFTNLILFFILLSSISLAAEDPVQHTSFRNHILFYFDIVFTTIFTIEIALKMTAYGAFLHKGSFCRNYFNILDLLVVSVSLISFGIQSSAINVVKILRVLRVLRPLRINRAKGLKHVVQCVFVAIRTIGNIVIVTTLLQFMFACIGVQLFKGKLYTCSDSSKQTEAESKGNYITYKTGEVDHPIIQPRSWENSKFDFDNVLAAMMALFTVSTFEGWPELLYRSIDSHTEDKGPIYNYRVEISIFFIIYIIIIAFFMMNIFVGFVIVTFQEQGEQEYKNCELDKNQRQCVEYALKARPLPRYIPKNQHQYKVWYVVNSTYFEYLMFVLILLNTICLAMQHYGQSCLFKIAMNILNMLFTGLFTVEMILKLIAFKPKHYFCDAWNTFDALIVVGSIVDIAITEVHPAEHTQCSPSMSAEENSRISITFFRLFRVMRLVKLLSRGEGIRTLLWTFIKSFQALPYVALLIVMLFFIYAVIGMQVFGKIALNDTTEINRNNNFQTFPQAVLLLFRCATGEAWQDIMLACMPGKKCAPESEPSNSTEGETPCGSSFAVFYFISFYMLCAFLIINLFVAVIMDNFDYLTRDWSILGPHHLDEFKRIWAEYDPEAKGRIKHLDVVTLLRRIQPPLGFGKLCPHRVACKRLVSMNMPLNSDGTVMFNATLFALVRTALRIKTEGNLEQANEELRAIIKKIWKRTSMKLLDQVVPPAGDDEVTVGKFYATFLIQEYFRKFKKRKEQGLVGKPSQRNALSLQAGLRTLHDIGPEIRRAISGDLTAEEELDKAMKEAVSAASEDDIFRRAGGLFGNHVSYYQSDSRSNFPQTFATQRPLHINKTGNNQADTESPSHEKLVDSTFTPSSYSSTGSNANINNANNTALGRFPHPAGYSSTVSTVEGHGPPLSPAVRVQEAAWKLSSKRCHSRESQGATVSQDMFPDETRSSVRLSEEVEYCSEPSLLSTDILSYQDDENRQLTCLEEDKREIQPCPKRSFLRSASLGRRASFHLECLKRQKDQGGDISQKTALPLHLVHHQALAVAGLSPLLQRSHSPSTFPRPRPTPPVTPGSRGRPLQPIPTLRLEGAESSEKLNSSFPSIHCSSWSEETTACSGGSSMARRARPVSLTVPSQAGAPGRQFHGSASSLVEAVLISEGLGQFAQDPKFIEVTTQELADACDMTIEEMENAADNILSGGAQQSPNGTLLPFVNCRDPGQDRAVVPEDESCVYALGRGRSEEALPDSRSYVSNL
# T1 sequence (P54290 25-944 partner limits assumed, other chains not shown): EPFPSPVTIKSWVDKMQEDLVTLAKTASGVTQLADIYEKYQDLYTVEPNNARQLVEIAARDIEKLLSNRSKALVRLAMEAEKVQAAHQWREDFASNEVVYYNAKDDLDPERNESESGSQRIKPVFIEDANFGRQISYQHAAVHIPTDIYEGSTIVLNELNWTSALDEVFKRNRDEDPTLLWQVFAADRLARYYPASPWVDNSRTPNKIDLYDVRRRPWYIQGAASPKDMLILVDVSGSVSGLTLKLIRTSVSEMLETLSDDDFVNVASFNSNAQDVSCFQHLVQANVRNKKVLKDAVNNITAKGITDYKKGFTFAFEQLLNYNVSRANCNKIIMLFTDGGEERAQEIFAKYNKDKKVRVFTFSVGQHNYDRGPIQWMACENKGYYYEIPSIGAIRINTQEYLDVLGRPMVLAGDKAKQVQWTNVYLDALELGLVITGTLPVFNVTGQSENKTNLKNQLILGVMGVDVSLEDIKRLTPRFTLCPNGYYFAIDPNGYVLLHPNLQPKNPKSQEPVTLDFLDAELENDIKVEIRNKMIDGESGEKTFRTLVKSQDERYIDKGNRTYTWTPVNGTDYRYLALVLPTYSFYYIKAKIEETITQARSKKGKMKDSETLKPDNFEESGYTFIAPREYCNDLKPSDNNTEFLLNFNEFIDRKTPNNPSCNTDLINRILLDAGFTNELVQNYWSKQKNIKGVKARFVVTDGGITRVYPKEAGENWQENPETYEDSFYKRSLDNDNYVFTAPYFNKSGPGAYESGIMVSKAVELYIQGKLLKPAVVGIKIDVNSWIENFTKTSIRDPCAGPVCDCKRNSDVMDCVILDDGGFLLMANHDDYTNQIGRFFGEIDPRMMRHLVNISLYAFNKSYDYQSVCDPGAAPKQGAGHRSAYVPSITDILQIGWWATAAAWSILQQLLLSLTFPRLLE
# T1 sequence (P54290 945-1091 partner limits assumed, other chains not shown): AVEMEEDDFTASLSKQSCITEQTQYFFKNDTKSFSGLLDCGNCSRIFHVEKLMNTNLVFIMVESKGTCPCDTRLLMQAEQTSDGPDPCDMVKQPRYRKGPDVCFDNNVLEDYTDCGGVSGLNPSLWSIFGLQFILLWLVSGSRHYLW
# Procedure: [^3 H]-Nitrendipine binding assay was carried out according to the method described by G. T. Bolger, et al., Biochem. Biophys. Res. Comm., 104, 1604-1609, (1982). The reaction mixture contained rat cardiac microsomes (source of Ca^2+ channels), 0.5 nM [^3 H]-nitrendipine with or without potential displacer in Tris buffer. The mixture was incubated for 60 minutes at 25° C. and subsequently terminated by rapid filtration through a glass fiber-filter. Membrane-bound [^3 H]-nitrendipine trapped in the filter was quantitated by scintillation counting. The inhibitory concentration (IC50) of potential displacer which gives 50% displacement of the total specifically bound [^3 H]-nitrendipine is presented as a measure of the affinity of such compound for the Ca^2+ channel.
# alpha1-adrenoceptor = assay: [3H]-Prazosin binding assay (affinity for alpha1-adrenoceptors); settings: partially purified rat brain membranes; 0.2 nM [3H]-prazosin, 60 min, 25° C.
# Procedure: The [^3 H]-prazosin binding assay was carried out according to the method described by Timmermans, P. B. M. W. M., Schoop, A. M. C., and Van Zwieten, P. A., Biochem. Pharmacol., 31, 899-905, (1982). The reaction mixture contained partially purified rat brain membranes (source of alpha1 -adrenoceptors), 0.2 nM [^3 H]-prazosin with or without potential displacer in Tris buffer. The mixture was incubated for 60 minutes at 25° C. and subsequently terminated by rapid filtration through glass fiber-filter. Receptor-bound [^3 H]-prazosin trapped in the filter was quantitated by scintillation counting. The inhibitory concentration (IC50) of potential displacer which gives 50% displacement of the total specifically bound [^3 H]-prazosin is presented as a measure of the affinity of such compound for the alpha1 -adrenoceptor.
EC50 (guinea pig left atria),IC50 (Ca^2+ channel),IC50 (alpha1-adrenoceptor),Compound,"calcium influx, inotropic and vascular effects ([1]; literature)",potency as a calcium agonist relative to CGP 28392 ([1]; literature),coronary vasoconstriction ([1]; not useful as a cardiotonic),Emax (guinea pig left atria)
150 nM,–,–,COC(=O)C1=C(C)NC(C)=C([N+](=O)[O-])C1c1ccccc1C(F)(F)F (stereo not shown) [Bay K8644],"promote an influx of calcium ions, into cells thereby producing positive inotropic and vasoconstrictor effects",more than ten times as potent as CGP 28392 as a calcium agonist,coronary vasoconstricting properties,100%
62000 nM,2000 nM,35 nM,COc1ccccc1N1CCN(CCCCOC(=O)C2=C(C)NC(C)=C([N+](=O)[O-])C2c2ccco2)CC1 (stereo not shown) [Example 69],–,–,–,60%
5000 nM,2000 nM,840 nM,"CC1=C(C(=O)OCCCCN2CCN(c3ncccn3)CC2)C(c2ccco2)C([N+](=O)[O-])=C(C)N1 (stereo not shown) [Example 70, 4-(2-Furanyl)-1,4-dihydro-2,6-dimethyl-5-nitro-3-pyridinecarboxylic acid, {4-[4-(2-pyrimidinyl)-1-piperazinyl]butyl} ester]",–,–,–,132%
–,1700 nM,78 nM,COc1ccccc1N1CCN(CCCCOC(=O)C2=C(C)NC(C)=C([N+](=O)[O-])C2c2ccsc2)CC1 (stereo not shown) [Example 71],–,–,–,40%
12000 nM,1600 nM,1000 nM,CC1=C(C(=O)OCCCCN2CCN(c3ncccn3)CC2)C(c2ccsc2)C([N+](=O)[O-])=C(C)N1 (stereo not shown) [Example 72],–,–,–,70%
980 nM,2400 nM,4900 nM,CC1=C(C(=O)OCCN2CCN(c3ncccn3)CC2)C(c2cccs2)C([N+](=O)[O-])=C(C)N1 (stereo not shown) [Example 73],–,–,–,84%
400 nM,85 nM,470 nM,COc1ccccc1N1CCN(CCOC(=O)C2=C(C)NC(C)=C([N+](=O)[O-])C2c2cccc3nonc23)CC1 (stereo not shown) [Example 75],–,–,–,82%
56 nM,85 nM,17000 nM,CC1=C(C(=O)OCCN2CCN(c3ncccn3)CC2)C(c2cccc3nonc23)C([N+](=O)[O-])=C(C)N1 (stereo not shown) [Example 76],–,–,–,156%
230 nM,1100 nM,110 nM,"COc1ccccc1N1CCN(CCOC(=O)C2=C(C)NC(C)=C([N+](=O)[O-])C2c2cccn2C)CC1 (stereo not shown) [Example 77, 1,4-Dihydro-2,6-dimethyl-4-(1-methyl-1H-pyrrol-2-yl)-5-nitro-3-pyridinecarboxylic acid, {2-[4-(2-methoxyphenyl)-1-piperazinyl]ethyl} ester]",–,–,–,240%
580 nM,1700 nM,3300 nM,"CC1=C(C(=O)OCCN2CCN(c3ncccn3)CC2)C(c2cccn2C)C([N+](=O)[O-])=C(C)N1 (stereo not shown) [Example 78, 1,4-Dihydro-2,6-dimethyl-4-(1-methyl-1H-pyrrol-2-yl)-5-nitro-3-pyridinecarboxylic acid, {2-[4-(2-pyrimidinyl)-1-piperazinyl]ethyl} ester]",–,–,–,231%
